According to the NIST ThermoML archive (doi:10.1016/j.tca.2006.10.025):
± gives the expanded uncertainty stated by the source.

Key:
[1] = molar heat capacity at constant pressure; conditions: 101.33 kPa, Liquid, Small sample (50 mg) DSC
[2] = 303.15 K; 101.33 kPa; Liquid; Vibrating tube method
[3] = molar heat capacity at constant pressure; xn = mol fraction of the nth substance listed; conditions: 303.15 K, 101 kPa, Liquid, Small sample (50 mg) DSC
[4] = excess molar enthalpy (molar enthalpy of mixing); xn = mol fraction of the nth substance listed; conditions: 303.15 K, 101 kPa, Liquid, Flow calorimetry

CCCCO [butan-1-ol]
[1]
Conditions	molar heat capacity at constant pressure [J/K/mol]
288.15 K	166.2 ± 2.6
293.15 K	171.8 ± 2.7
298.15 K	175.3 ± 2.7
303.15 K	178.9 ± 2.8
308.15 K	182.8 ± 2.8
313.15 K	186.6 ± 2.9
318.15 K	190.8 ± 3
323.15 K	194.7 ± 3

Conditions	mass density [kg/m3]
[2]	801.98 ± 0.21

CCCCCCCCCCO [decan-1-ol]
[1]
Conditions	molar heat capacity at constant pressure [J/K/mol]
288.15 K	360.1 ± 5.6
293.15 K	368.5 ± 5.7
298.15 K	373.9 ± 5.8
303.15 K	379.3 ± 5.9
308.15 K	385.3 ± 6
313.15 K	390.6 ± 6.1
318.15 K	395.9 ± 6.1
323.15 K	401.3 ± 6.2

Conditions	mass density [kg/m3]
[2]	822.95 ± 0.31

CCCCCCCCCCO [decan-1-ol] + C[S+](C)[O-]
Conditions	excess molar enthalpy [kJ/mol]	molar heat capacity at constant pressure [J/K/mol]
[3], x2 = 0.0868	–	355.3 ± 5.5
[3], x2 = 0.1641	–	338 ± 5.2
[3], x2 = 0.2592	–	316.3 ± 4.9
[3], x2 = 0.4231	–	282.4 ± 4.4
[3], x2 = 0.5259	–	259.2 ± 4
[3], x2 = 0.6431	–	235.2 ± 3.6
[3], x2 = 0.7082	–	221.4 ± 3.4
[3], x2 = 0.7997	–	201 ± 3.1
[3], x2 = 0.8618	–	186.2 ± 2.9
[3], x2 = 0.8908	–	179.2 ± 2.8
[3], x2 = 0.9159	–	172.9 ± 2.7
[3], x2 = 0.9596	–	162.1 ± 2.5
[4], x2 = 0.1006	0.466 ± 0.008	–
[4], x2 = 0.1828	0.876 ± 0.012	–
[4], x2 = 0.2512	1.16 ± 0.015	–
[4], x2 = 0.3091	1.33 ± 0.017	–
[4], x2 = 0.4016	1.48 ± 0.019	–
[4], x2 = 0.4722	1.52 ± 0.019	–
[4], x2 = 0.573	1.51 ± 0.019	–
[4], x2 = 0.6414	1.48 ± 0.019	–
[4], x2 = 0.7286	1.37 ± 0.017	–
[4], x2 = 0.8011	1.26 ± 0.016	–
[4], x2 = 0.843	1.14 ± 0.015	–
[4], x2 = 0.8895	0.952 ± 0.013	–
[4], x2 = 0.9148	0.821 ± 0.012	–
[4], x2 = 0.9416	0.628 ± 0.011	–
[4], x2 = 0.9555	0.495 ± 0.012	–
[4], x2 = 0.9699	0.354 ± 0.011	–
[4], x2 = 0.9847	0.191 ± 0.011	–

C[S+](C)[O-] [dimethyl sulfoxide]
[1]
Conditions	molar heat capacity at constant pressure [J/K/mol]
288.15 K	147.8 ± 2.3
293.15 K	149.4 ± 2.3
298.15 K	151.5 ± 2.3
303.15 K	152.4 ± 2.4
308.15 K	153.4 ± 2.4
313.15 K	155.4 ± 2.4
318.15 K	155.6 ± 2.4
323.15 K	156.6 ± 2.4

Conditions	mass density [kg/m3]
[2]	1090.45 ± 0.11

C[S+](C)[O-] [dimethyl sulfoxide] + CCCCO
Conditions	excess molar enthalpy, [4] [kJ/mol]	molar heat capacity at constant pressure, [3] [J/K/mol]
x1 = 0.051	0.299 ± 0.006	–
x1 = 0.0874	–	175.2 ± 2.7
x1 = 0.097	0.518 ± 0.008	–
x1 = 0.1288	–	172.3 ± 2.7
x1 = 0.1385	0.686 ± 0.009	–
x1 = 0.1769	0.791 ± 0.01	–
x1 = 0.2324	–	167 ± 2.6
x1 = 0.2438	0.923 ± 0.012	–
x1 = 0.3007	0.988 ± 0.013	–
x1 = 0.364	–	161.2 ± 2.5
x1 = 0.3921	1.07 ± 0.014	–
x1 = 0.4541	–	158 ± 2.4
x1 = 0.4622	1.06 ± 0.013	–
x1 = 0.5633	1.03 ± 0.013	–
x1 = 0.5775	–	155.4 ± 2.4
x1 = 0.6568	–	152.7 ± 2.4
x1 = 0.6594	0.932 ± 0.012	–
x1 = 0.7207	0.843 ± 0.011	151.6 ± 2.3
x1 = 0.7577	–	150.8 ± 2.3
x1 = 0.7947	0.717 ± 0.009	–
x1 = 0.8377	0.604 ± 0.008	–
x1 = 0.8537	–	150.3 ± 2.3
x1 = 0.8856	0.467 ± 0.007	–
x1 = 0.9117	0.377 ± 0.006	–
x1 = 0.919	–	150 ± 2.3
x1 = 0.9393	0.273 ± 0.006	–
x1 = 0.9542	–	151.5 ± 2.3
x1 = 0.9687	0.149 ± 0.005	–
